Results reported in patent publication US20250152585A1, “PHARMACEUTICAL COMPOUND” (Duke Street Bio Limited, priority 2022, published 2025).
Read-outs that look alike come from different tables or passages of the source.

How the values were obtained:
[1] = target: T1, full length N-terminally FLAG-tagged PARP1 (Homo sapiens, UniProt P09874); assay: PARP1 biochemical DELFIA assay (auto-PARylation); set-up: recombinant full length human N-terminally FLAG-tagged PARP1
[2] = target: T2, N-terminally FLAG-tagged PARP2 (amino acids 1-583) (Homo sapiens, UniProt Q9UGN5); assay: PARP2 probe displacement HTRF assay; assay type: binding; conditions: binned Kd
T2 construct: N-terminally FLAG-tagged PARP2 (amino acids 1-583)
T2 sequence (Q9UGN5 whole entry, the tested form may be a part): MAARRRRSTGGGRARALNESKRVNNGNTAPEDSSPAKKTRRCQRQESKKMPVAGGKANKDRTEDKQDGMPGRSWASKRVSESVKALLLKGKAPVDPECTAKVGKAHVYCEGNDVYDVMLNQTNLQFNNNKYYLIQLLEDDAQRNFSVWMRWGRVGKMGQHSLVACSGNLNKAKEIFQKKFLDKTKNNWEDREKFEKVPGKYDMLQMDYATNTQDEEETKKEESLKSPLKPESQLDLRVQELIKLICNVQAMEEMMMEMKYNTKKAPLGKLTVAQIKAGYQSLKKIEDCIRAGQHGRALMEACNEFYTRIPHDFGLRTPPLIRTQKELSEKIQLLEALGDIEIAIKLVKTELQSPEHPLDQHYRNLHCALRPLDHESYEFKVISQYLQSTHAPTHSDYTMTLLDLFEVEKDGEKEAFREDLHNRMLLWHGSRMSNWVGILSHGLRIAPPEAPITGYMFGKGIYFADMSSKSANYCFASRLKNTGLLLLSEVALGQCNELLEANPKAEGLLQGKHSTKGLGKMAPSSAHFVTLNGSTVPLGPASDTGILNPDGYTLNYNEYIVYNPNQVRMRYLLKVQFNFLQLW
Procedure: Data analysis was performed identical as for PARP1.

[3] = target: T1, full length N-terminally FLAG-tagged PARP1; assay: PARP1 probe displacement HTRF assay; conditions: for Selectivity: PARP1 over PARP2, ratio Kd (PARP2)/Kd (PARP1); for Kd: binned Kd
[4] = binned IC50, biochemical auto-PARylation assay
[5] = read-out: PARP1 HTRF, probe displacement HTRF
[6] = binned IC50, PARP1 biochemical DELFIA assay
[7] = read-out: PARP1 HTRF, PARP1 probe displacement HTRF
[8] = PARP1 HTRF, probe displacement HTRF
[9] = PARP1 HTRF, PARP1 probe displacement HTRF

T1 sequence (P09874 whole entry, the tested form may be a part): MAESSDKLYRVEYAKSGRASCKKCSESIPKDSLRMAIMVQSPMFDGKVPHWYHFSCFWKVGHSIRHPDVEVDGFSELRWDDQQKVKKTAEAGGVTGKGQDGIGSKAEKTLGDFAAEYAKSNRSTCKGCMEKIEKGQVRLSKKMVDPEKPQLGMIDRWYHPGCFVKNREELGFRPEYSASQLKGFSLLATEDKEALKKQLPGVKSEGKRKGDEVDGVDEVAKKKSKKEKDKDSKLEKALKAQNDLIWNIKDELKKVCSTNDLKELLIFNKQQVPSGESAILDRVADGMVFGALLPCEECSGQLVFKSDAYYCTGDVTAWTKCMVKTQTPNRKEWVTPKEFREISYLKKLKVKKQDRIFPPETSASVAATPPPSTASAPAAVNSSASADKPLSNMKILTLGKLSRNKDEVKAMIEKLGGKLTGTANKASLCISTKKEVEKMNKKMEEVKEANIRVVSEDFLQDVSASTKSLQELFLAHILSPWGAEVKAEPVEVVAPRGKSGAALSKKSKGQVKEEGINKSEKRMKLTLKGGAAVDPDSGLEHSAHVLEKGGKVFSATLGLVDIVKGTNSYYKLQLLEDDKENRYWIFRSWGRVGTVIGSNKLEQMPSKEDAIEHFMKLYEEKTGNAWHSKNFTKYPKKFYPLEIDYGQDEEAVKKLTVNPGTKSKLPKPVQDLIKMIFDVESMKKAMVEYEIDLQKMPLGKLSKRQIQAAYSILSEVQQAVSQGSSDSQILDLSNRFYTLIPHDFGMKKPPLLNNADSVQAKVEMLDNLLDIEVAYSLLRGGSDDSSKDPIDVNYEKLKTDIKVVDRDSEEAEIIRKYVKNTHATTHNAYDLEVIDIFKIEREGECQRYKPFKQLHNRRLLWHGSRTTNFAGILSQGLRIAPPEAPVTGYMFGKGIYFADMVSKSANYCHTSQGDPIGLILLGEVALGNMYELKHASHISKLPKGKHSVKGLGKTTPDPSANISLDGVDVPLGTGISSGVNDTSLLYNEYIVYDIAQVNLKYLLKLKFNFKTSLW

SMILES	IC50 [1, 4]	Kd ([2]; probe displacement HTRF)	Selectivity ([3]; probe displacement HTRF)	Kd [3, 5]	IC50 [1, 6]	Kd ([2]; PARP2 probe displacement HTRF)	Kd [3, 7]	Kd [3, 8]	Kd [3, 9]
CCNC(=O)c1ccc(N2CCC(N3CCC(c4ccc(CC)c(=O)[nH]4)C3)CC2)c(F)n1 (racemic) [Compound 264rac]	< 10 nM	100 to 1000 nM	+++ (+++ indicate a value of at least 100)	< 10 nM	–	–	–	–	–
CCc1ccc(C2CCN(C3CCN(c4ccc(C(=O)NC)cc4)CC3)C2)[nH]c1=O (single isomer, unassigned) [Compound 355a]	100 to 1000 nM	1000 to 10000 nM	− (− indicates a value of less than 10)	100 to 1000 nM	–	–	–	–	–
O=C(NCCF)c1ccc(N2CCC(N3CCC(c4nc5ccccc5c(=O)[nH]4)C3)CC2)cn1 (single isomer, unassigned) [Compound 117b]	–	–	+++ (+++ indicate a value of at least 100)	–	< 10 nM	100 to 1000 nM	< 10 nM	–	–
CNC(=O)c1ccc(N2CCC(N3CCCC(C)(c4nc5ccccc5c(=O)[nH]4)C3)CC2)cn1 (single isomer, unassigned) [Compound 66b]	–	–	− (− indicates a value of less than 10)	–	1000 to 10000 nM	> 10000 nM	1000 to 10000 nM	–	–
CNC(=O)c1ccc(N2CCC(N3CC4(c5nc6cccc(C(F)(F)F)c6c(=O)[nH]5)CC3C4)CC2)cn1 [Compound 394]	< 10 nM	10 to 100 nM	+ (+ indicates a value of 10 to less than 50)	–	–	–	–	< 10 nM	–
CCN1CCCc2c1nc(C13CC(C1)N(C1CCN(c4ccc(C(=O)NC)nc4F)CC1)C3)[nH]c2=O [Compound 384]	< 10 nM	100 to 1000 nM	+ (+ indicates a value of 10 to less than 50)	–	–	–	–	< 10 nM	–
CNC(=O)c1ccc(N2CCC(N3CCC(c4nc5ccc(F)cc5c(=O)[nH]4)C3)CC2)cn1 (single isomer, unassigned) [Compound 64a]	–	–	+ (+ indicates a value of 10 to less than 50)	–	< 10 nM	100 to 1000 nM	< 10 nM	–	–
CC(=O)Nc1ccc(N2CCC(N3CCC(c4nc5ccccc5c(=O)[nH]4)C3)CC2)cn1 (single isomer, unassigned) [Compound 262b]	100 to 1000 nM	1000 to 10000 nM	+ (+ indicates a value of 10 to less than 50)	100 to 1000 nM	–	–	–	–	–
CNC(=O)c1ncc(N2CCC(N3CC4(c5nc6ccc(F)cc6c(=O)[nH]5)CC3C4)CC2)cc1F [Compound 379]	< 10 nM	100 to 1000 nM	+++ (+++ indicate a value of at least 100)	–	–	–	–	< 10 nM	–
CNC(=O)c1ccc(N2CCC(N3CCC(C)(c4nc5ccccc5c(=O)[nH]4)C3)CC2)cn1 (single isomer, unassigned) [Compound 67a]	–	–	+ (+ indicates a value of 10 to less than 50)	–	100 to 1000 nM	1000 to 10000 nM	100 to 1000 nM	–	–
COCCNC(=O)c1ccc(N2CCC(N3CCC(c4nc5ccccc5c(=O)[nH]4)C3)CC2)cn1 (racemic) [Compound 124rac]	–	–	+++ (+++ indicate a value of at least 100)	–	< 10 nM	100 to 1000 nM	< 10 nM	–	–
CNC(=O)c1ccc(N2CCC(N3CCC(c4cc5cccc(F)c5c(=O)[nH]4)C3)CC2)c(C)n1 (single isomer, unassigned) [Compound 206a]	–	–	+++ (+++ indicate a value of at least 100)	–	< 10 nM	100 to 1000 nM	< 10 nM	–	–
CNC(=O)c1ccc(N2CCC(N3CCCC(c4nc5ccccc5c(=O)[nH]4)CC3)CC2)cn1 (racemic) [Compound 102rac]	–	–	+++ (+++ indicate a value of at least 100)	–	< 10 nM	1000 to 10000 nM	< 10 nM	–	–
CNC(=O)c1ccc(N2CCC(N3CCC(c4nc5c(c(C(F)(F)F)cn5C)c(=O)[nH]4)C3)CC2)cn1 (single isomer, unassigned) [Compound 170a]	–	–	− (− indicates a value of less than 10)	–	< 10 nM	< 10 nM	< 10 nM	–	–
CNC(=O)c1ccc(N2CCC(N3CCC(c4cc5cccc(O)c5c(=O)[nH]4)C3)CC2)cn1 (racemic) [Compound 271rac]	< 10 nM	100 to 1000 nM	+++ (+++ indicate a value of at least 100)	< 10 nM	–	–	–	–	–
CNC(=O)c1cnc(N2CCC(N3CCC(c4nc5ccccc5c(=O)[nH]4)C3)CC2)cn1 (single isomer, unassigned) [Compound 96b]	–	–	− (− indicates a value of less than 10)	–	100 to 1000 nM	100 to 1000 nM	100 to 1000 nM	–	–
CNC(=O)c1ccc(N2CCC(N3CCCC(c4nc5ccccc5c(=O)[nH]4)C3)CC2)cn1 (single isomer, unassigned) [Compound 6b, N-methyl-5-(3-(4-oxo-3,4-dihydroquinazolin-2-yl)-[1,4′-bipiperidin]-1′-yl)picolinamide]	–	–	+ (+ indicates a value of 10 to less than 50)	–	100 to 1000 nM	1000 to 10000 nM	–	–	100 to 1000 nM
CNC(=O)c1ccc(N2CCC(N3CCC(c4[nH]c(=O)c5cc(F)ccc5c4F)C3)CC2)cn1 (single isomer, unassigned) [Compound 370a]	< 10 nM	100 to 1000 nM	+++ (+++ indicate a value of at least 100)	< 10 nM	–	–	–	–	–
CNC(=O)c1cnc(N2CCC(N3CCCC(c4nc5ccccc5c(=O)[nH]4)C3)CC2)cn1 (single isomer, unassigned) [Compound 99b]	–	–	− (− indicates a value of less than 10)	–	10 to 100 nM	100 to 1000 nM	100 to 1000 nM	–	–
CNC(=O)c1ncc(N2CCC(N3CCC(c4cc5cccc(F)c5c(=O)[nH]4)C3)CC2)c(C(F)(F)F)n1 (single isomer, unassigned) [Compound 277a]	< 10 nM	1000 to 10000 nM	+++ (+++ indicate a value of at least 100)	< 10 nM	–	–	–	–	–
CNC(=O)c1ccc(N2CCC(N3CCC(c4cc5c(F)cncc5c(=O)[nH]4)C3)CC2)cn1 (single isomer, unassigned) [Compound 331a]	< 10 nM	100 to 1000 nM	+++ (+++ indicate a value of at least 100)	< 10 nM	–	–	–	–	–
CCc1ccc(C2CCCN(C3CCN(c4ccc(C(=O)NC)nc4)CC3)C2)[nH]c1=O (single isomer, unassigned) [Compound 53b, 5-{4-[3-(5-ethyl-6-oxo-1H-pyridin-2-yl)piperidin-1-yl]piperidin-1-yl}-N-methylpyridine-2-carboxamide]	–	–	+ (+ indicates a value of 10 to less than 50)	–	100 to 1000 nM	> 10000 nM	–	–	100 to 1000 nM
N#Cc1ccc(N2CCC(N3CCCC(c4nc5ccccc5c(=O)[nH]4)C3)CC2)cn1 (single isomer, unassigned) [Compound 70b]	–	–	− (− indicates a value of less than 10)	–	10 to 100 nM	100 to 1000 nM	100 to 1000 nM	–	–
CNC(=O)c1ccc(N2CCC(N3CCC(c4nc5c(F)cccc5c(=O)[nH]4)C3)CC2)cn1 (single isomer, unassigned) [Compound 121b]	–	–	+++ (+++ indicate a value of at least 100)	–	< 10 nM	100 to 1000 nM	< 10 nM	–	–
CNC(=O)c1ccc(N2CCC(N3CCC(c4nc5ncccc5c(=O)[nH]4)C3)CC2)cn1 (single isomer, unassigned) [Compound 60b]	–	–	++ (++ indicates a value of 50 to less than 100)	–	100 to 1000 nM	> 10000 nM	10 to 100 nM	–	–
CNC(=O)c1ccc(N2CCC(N3CCCC(c4nc5ccccc5c(=O)[nH]4)C3)CC2)c(Cl)n1 (single isomer, unassigned) [Compound 94b]	–	–	+++ (+++ indicate a value of at least 100)	–	< 10 nM	> 10000 nM	< 10 nM	–	–
